Measured values taken from PubChem BioAssay AID248 (DTP/NCI, 2004).
Toxic doses and inconclusive results are not listed. Rule as the data show it: active = T/C of 150% or more; inactive = T/C below 125%.

Test system: L1210 leukemia ip in BDF1 mice, survival T/C
Assay: NCI In Vivo Anticancer Drug Screen. Data for tumor model L1210 Leukemia (intraperitoneal) in B6D2F1 (BDF1) mice
Settings: endpoint: mean survival time, higher = longer survival
Method in brief: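 Ratio derived from survival: compound-dosed mice over vehicle-dosed mice, all bearing a transplantable tumor.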

[1] = dose: 100.0 mg/kg/injection, schedule: Q04DX003 (ip), vehicle: Klucel (hydroxypropylcellulose) (HPC)
[2] = dose: 200.0 mg/kg/injection, schedule: Q04DX003 (ip), vehicle: Klucel (hydroxypropylcellulose) (HPC)
[3] = dose: 400.0 mg/kg/injection, schedule: Q04DX003 (ip), vehicle: Klucel (hydroxypropylcellulose) (HPC)
[4] = dose: 100.0 mg/kg/injection, schedule: Q04DX003 (ip), vehicle: saline with Tween-80
[5] = dose: 200.0 mg/kg/injection, schedule: Q04DX003 (ip), vehicle: saline with Tween-80
[6] = dose: 400.0 mg/kg/injection, schedule: Q04DX003 (ip), vehicle: saline with Tween-80
[7] = dose: 100.0 mg/kg/injection, schedule: Q01DX001 (ip), vehicle: saline
[8] = dose: 200.0 mg/kg/injection, schedule: Q01DX001 (ip), vehicle: saline
[9] = dose: 400.0 mg/kg/injection, schedule: Q01DX001 (ip), vehicle: saline
[10] = dose: 100.0 mg/kg/injection, schedule: Q04DX002 (ip), vehicle: saline with Tween-80
[11] = dose: 200.0 mg/kg/injection, schedule: Q04DX002 (ip), vehicle: saline with Tween-80
[12] = dose: 400.0 mg/kg/injection, schedule: Q04DX002 (ip), vehicle: saline with Tween-80
[13] = dose: 100.0 mg/kg/injection, schedule: Q01DX009 (ip), vehicle: Klucel (hydroxypropylcellulose) (HPC)
[14] = dose: 200.0 mg/kg/injection, schedule: Q01DX009 (ip), vehicle: Klucel (hydroxypropylcellulose) (HPC)
[15] = dose: 400.0 mg/kg/injection, schedule: Q01DX009 (ip), vehicle: Klucel (hydroxypropylcellulose) (HPC)
[16] = dose: 100.0 mg/kg/injection, schedule: Q04DX002 (ip), vehicle: Klucel (hydroxypropylcellulose) (HPC)
[17] = dose: 200.0 mg/kg/injection, schedule: Q04DX002 (ip), vehicle: Klucel (hydroxypropylcellulose) (HPC)
[18] = dose: 10.0 mg/kg/injection, schedule: Q01DX001 (ip), vehicle: saline
[19] = dose: 20.0 mg/kg/injection, schedule: Q01DX001 (ip), vehicle: saline
[20] = dose: 50.0 mg/kg/injection, schedule: Q04DX003 (ip), vehicle: saline with Tween-80
[21] = dose: 100.0 mg/kg/injection, schedule: Q01DX009 (ip), vehicle: saline
[22] = dose: 200.0 mg/kg/injection, schedule: Q01DX009 (ip), vehicle: saline
[23] = dose: 100.0 mg/kg/injection, schedule: Q01DX009 (ip), vehicle: saline with Tween-80
[24] = dose: 200.0 mg/kg/injection, schedule: Q01DX009 (ip), vehicle: saline with Tween-80

Measured: T/C

Ic1ccc(-n2cccc2)cc1
inactive: dose: 100.0 mg/kg/injection, schedule: Q01DX001 (ip), vehicle: steriod suspending solution 95 % of control | dose: 200.0 mg/kg/injection, schedule: Q01DX001 (ip), vehicle: steriod suspending solution 101 % of control | dose: 400.0 mg/kg/injection, schedule: Q01DX001 (ip), vehicle: steriod suspending solution 92 % of control

N#Cc1c(O)c(Cl)c(Cl)c(O)c1C#N
inactive: [1] 109 % of control | [2] 96 % of control | [3] 96 % of control

C=C1c2c(Cl)cccc2C(CC)(CC)c2cccc(Cl)c21
inactive: [4] 94 % of control | [5] 94 % of control | [6] 92 % of control

CN=C(C)c1ccc(N(C)C)cc1
inactive: [1] 101 % of control | [2] 92 % of control | [3] 97 % of control

COc1cc(N)c2ncccc2c1Cl
inactive: [7] 104 % of control | [8] 104 % of control | [9] 101 % of control

O=C1c2ccccc2C(=O)N1CNc1ccccn1
inactive: [10] 96 % of control | [11] 93 % of control | [12] 100 % of control

C=C(C)C1(CCCCC)C(=O)NC(=O)NC1=O
inactive: dose: 75.0 mg/kg/injection, schedule: Q01DX001 (ip), vehicle: saline 101 % of control | dose: 150.0 mg/kg/injection, schedule: Q01DX001 (ip), vehicle: saline 98 % of control

O=C(O)COc1cccc([N+](=O)[O-])c1
inactive: [13] 96 % of control | [14] 98 % of control | [15] 94 % of control

Cc1ccc(S(=O)(=O)OC2C(=O)C(C)(C)CCC2(C)C)cc1 (stereo not drawn)
inactive: [16] 100 % of control | [17] 100 % of control | dose: 400.0 mg/kg/injection, schedule: Q04DX002 (ip), vehicle: Klucel (hydroxypropylcellulose) (HPC) 97 % of control

COc1ccc(Cl)cc1NC(=O)Nc1cccc(F)c1
inactive: [13] 97 % of control | [14] 97 % of control | [15] 97 % of control

CN(C)CCCNc1c2ccccc2nc2ccc(F)cc12
inactive: dose: 5.0 mg/kg/injection, schedule: Q01DX001 (ip), vehicle: saline 100 % of control | [18] 96 % of control | [19] 107 % of control

O=C(O)CCCCCN1C(=O)CCC1=O
inactive: dose: 75.0 mg/kg/injection, schedule: Q04DX003 (ip), vehicle: saline 95 % of control | dose: 150.0 mg/kg/injection, schedule: Q04DX003 (ip), vehicle: saline 103 % of control | dose: 300.0 mg/kg/injection, schedule: Q04DX003 (ip), vehicle: saline 92 % of control

O=C(/C(=C\Cl)CBr)c1ccccc1
inactive: dose: 12.5 mg/kg/injection, schedule: Q01DX009 (ip), vehicle: saline with Tween-80 88 % of control | dose: 25.0 mg/kg/injection, schedule: Q01DX009 (ip), vehicle: saline with Tween-80 88 % of control | dose: 25.0 mg/kg/injection, schedule: Q04DX003 (ip), vehicle: saline with Tween-80 90 % of control | dose: 50.0 mg/kg/injection, schedule: Q01DX009 (ip), vehicle: saline with Tween-80 90 % of control | [20] 92 % of control | [4] 98 % of control

O=c1[nH]c2ccsc2c(=O)n1OS(=O)(=O)c1ccccc1
inactive: [13] 100 % of control | [14] 100 % of control | [15] 88 % of control

NC(=O)Oc1ccccc1
inactive: [7] 98 % of control | [21] 102 % of control | dose: 100.0 mg/kg/injection, schedule: Q04DX003 (ip), vehicle: saline 95 % of control | [8] 98 % of control | [22] 111 % of control | dose: 200.0 mg/kg/injection, schedule: Q04DX003 (ip), vehicle: saline 98 % of control | [9] 96 % of control | dose: 400.0 mg/kg/injection, schedule: Q01DX009 (ip), vehicle: saline 120 % of control | dose: 400.0 mg/kg/injection, schedule: Q04DX003 (ip), vehicle: saline 103 % of control

c1ccc([C](c2ccccc2)(c2ccccc2)[Sn]([c]2ccccc2)([c]2ccccc2)[c]2ccccc2)cc1
inactive: dose: 25.6 mg/kg/injection, schedule: Q04DX002 (ip), vehicle: saline with Tween-80 121 % of control | dose: 64.0 mg/kg/injection, schedule: Q04DX002 (ip), vehicle: saline with Tween-80 86 % of control | dose: 160.0 mg/kg/injection, schedule: Q04DX002 (ip), vehicle: saline with Tween-80 86 % of control | [12] 86 % of control

O=C(NCCCl)NC1CCCC(O)C1 (stereo not drawn)
inactive: [7] 101 % of control | [8] 101 % of control | [9] 93 % of control

CCOC(=O)NCc1cccc2ccc(Cl)cc12
inactive: dose: 100.0 mg/kg/injection, schedule: Q01DX001 (ip), vehicle: Klucel (hydroxypropylcellulose) (HPC) 95 % of control | dose: 200.0 mg/kg/injection, schedule: Q01DX001 (ip), vehicle: Klucel (hydroxypropylcellulose) (HPC) 90 % of control | dose: 400.0 mg/kg/injection, schedule: Q01DX001 (ip), vehicle: Klucel (hydroxypropylcellulose) (HPC) 86 % of control

c1ccc(OCc2ccc(COc3ccccc3)cc2)cc1
inactive: dose: 25.0 mg/kg/injection, schedule: Q01DX009 (ip), vehicle: Klucel (hydroxypropylcellulose) (HPC) 98 % of control | dose: 25.0 mg/kg/injection, schedule: Q04DX003 (ip), vehicle: Klucel (hydroxypropylcellulose) (HPC) 97 % of control | dose: 50.0 mg/kg/injection, schedule: Q01DX009 (ip), vehicle: Klucel (hydroxypropylcellulose) (HPC) 92 % of control | dose: 50.0 mg/kg/injection, schedule: Q04DX003 (ip), vehicle: Klucel (hydroxypropylcellulose) (HPC) 94 % of control | [13] 95 % of control | [1] 92 % of control

CN(C)N=Nc1c[nH]c(=O)[nH]c1=O
inactive: [18] 108 % of control | [19] 120 % of control | dose: 40.0 mg/kg/injection, schedule: Q01DX001 (ip), vehicle: saline 123 % of control

O=C1c2ccccc2-c2cc(Br)c(NC(Cl)Cl)cc21
inactive: [4] 94 % of control | [5] 93 % of control | [6] 94 % of control

CCCCOB(OCCCC)c1cccc(C(F)(F)F)c1
inactive: [21] 100 % of control | [22] 89 % of control

CC1(N)COP(=O)(NC2CCCC2)OC1 (stereo not drawn)
inactive: [7] 100 % of control | [8] 105 % of control | [9] 91 % of control

COc1cc(N=Nc2ccccc2C(=O)O)ccc1O
inactive: [23] 96 % of control | [4] 96 % of control | [24] 104 % of control | [5] 101 % of control | [6] 101 % of control

O=C(COc1ccc(Cl)cc1C(=O)O)NCc1ccc(NC(=O)Nc2cccc(S(=O)(=O)F)c2)cc1
inactive: [7] 96 % of control | [8] 93 % of control | [9] 104 % of control

CCCCCCCCCCCCCCCCS(=O)(=O)N/N=C(/c1cccc(N)c1)N1CCCCC1
inactive: [20] 87 % of control | [4] 90 % of control | [6] 88 % of control

O=C(Nc1ccc(S(=O)(=O)Nc2ncccn2)cc1)c1ccc(C(=O)Nc2ccc(S(=O)(=O)Nc3ncccn3)cc2)cc1
inactive: dose: 50.0 mg/kg/injection, schedule: Q01DX015 (ip), vehicle: methylcellulose (MC) 100 % of control | dose: 100.0 mg/kg/injection, schedule: Q01DX015 (ip), vehicle: methylcellulose (MC) 103 % of control | dose: 200.0 mg/kg/injection, schedule: Q01DX015 (ip), vehicle: methylcellulose (MC) 97 % of control | dose: 400.0 mg/kg/injection, schedule: Q01DX015 (ip), vehicle: methylcellulose (MC) 106 % of control

COC1CC(O)C(O)C(C)O1 (stereo not drawn)
inactive: [7] 93 % of control | [23] 100 % of control | [4] 91 % of control | [8] 96 % of control | [24] 91 % of control | [5] 108 % of control | [9] 98 % of control | dose: 400.0 mg/kg/injection, schedule: Q01DX009 (ip), vehicle: saline with Tween-80 89 % of control | [6] 100 % of control

CCCN1CCCC(OC(=O)N(C)C)C1 (stereo not drawn)
inactive: [16] 86 % of control | [17] 104 % of control

CCC[CH2][Sn]([S][Sn]([CH2]CCC)([c]1ccccc1)[c]1ccccc1)([c]1ccccc1)[c]1ccccc1
inactive: [10] 96 % of control | [11] 103 % of control
